Reference: US11365415B2, “Use of miR-223-3p as a cancer therapeutic and method for treating cancer using the same” (University of Florida Research Foundation, Inc., priority 2016, dated 2022)

How the values were obtained:
Format in all cases: cell-based
[1] = tested on: endogenous miR-223-3p in HL60 cells; experiment: qRT-PCR of endogenous miR-223-3p in HL60 cells after Ara-C; details: 50 μM Ara-C, different time points
Protocol: Quantitative real time PCR (qRT-PCR) measuring endogenous miR-223 If miR-223-3p is a physiologic regulator of PARP1 expression, then its expression should be repressed after DNA damage, when higher levels of PARP1 are required to repair this damage. Mir223-3p is most highly expressed in hematopoietic cells, such as the HL60 cell line. HL60 cells were treated with 50 μM cytarabine (Ara-C) for lhr, 4 hr, 8 hr, 12 hr and 24 hr. Western blot analysis was performed to examine PARP1 protein levels in these samples. For measuring levels of miR-223-3p, cells were collected at the above time points, RNA isolated using the Qiagen RNeasy kit. cDNA conversion was then performed using first-strand cDNA synthesis kit for miRNA from Origene (HP100042). qRT-PCR for miR-223 3p was performed on a 7900HT Fast Real-Time PCR system (ABI) according to Origene protocol and ACT values were calculated. […]
Quantitative Real Time PCR (qRT-PCR) Measuring Endogenous miR223-3p. […] For measuring levels of miR223-3p, cells were collected at the above time points, RNA isolated using the Qiagen RNeasy kit. cDNA conversion was then performed using first-strand cDNA synthesis kit for miRNA from Origene (HP100042). qRT-PCR for miR223 3p was performed on a 7900HT Fast Real-Time PCR system (ABI) according to Origene protocol and ΔCT values were calculated. […]

[2] = tested on: Human Mesothelioma cells (H-Meso 01A); experiment: Colony formation of BAP1 mutant human mesothelioma cells treated with olaparib; details: 3 olaparib, 10 days continuous
Protocol: These cells were treated with the PARP inhibitor, olaparib. Human Mesothelioma cells (H-Meso 01A) were cultured in RPMI media supplemented with 10% FBS and 1% Penicillin/Streptomycin. These cells were seeded in a 6-well plate at a density of 4000 cells/well and allowed to grow for 18 hours. Of the six wells, three wells were treated with […] (LC laboratories, Cat #0-9201) each and the other three wells were considered as controls. The cells were allowed to grow for 10 days. Olaparib stayed on the cells throughout the experiment. After 10 days of incubation, colonies were stained with 0.1% crystal violet in methanol and counted using Image J software. Olaparib killed at least 80-90% of the cells. The experiment was done three times, each in triplicates and the average from all three times was calculated (FIG. 24).

PARP1 3′ UTR mRNA = experiment: Luciferase assay for stability of PARP1 3′ UTR mRNA in A549 cells; details: normalized against Renilla luciferase
Protocol: (§1) A549 cells were transfected with miR-223-3p mimic using RNAiMAX as above. After 6 hours, these cells were transfected with PARP 3′UTR plasmid fused with dual luciferase reporter from GeneCopoeia using Lipofectamine 2000. 48 hours post-transfection, cells were collected and assessed for luciferase activity using Luc-Pair Dual Luciferase assay kit from GeneCopoeia. The firefly luciferase activity is normalized against Renilla luciferase, which serves as a transfection control.
as §1, with “Luciferase assay for assessing stability of PARP1 3′ UTR mRNA. A549” for “A549”, “miR223-3p” for “miR-223-3p”

[3] = tested on: UWB1.289 (ovarian cancer) cells, deficient in BRCA1; experiment: Colony formation survival assay, UWB1.289; details: UWB1.289, 25 nm miR-223-3p mimic, colonies counted after 14 days
Protocol: (§2) Colony formation assays measures the ability of a single cell to not only survive, but also to proliferate. Thus, it is an indirect measurement of cancer stem cell activity, the ability of a single cell to give rise to a host of progeny. The BRCA1-deficient MDA-MB-436 breast cancer cells were cultured in DMEM supplemented with 10% FBS and 1% penicillin and streptomycin. BRRCA1-deficient UWB1.289 ovarian cancer cells were cultured and maintained in 50% MEBM medium with growth factors and 50% RPMI medium supplemented with 3% FBS and 1% penicillin and streptomycin. 25 nm of mirVana miR-223 3p mimic from Ambion life technologies (Cat #4464067) was used to deplete PARP1 protein in these cell lines. Mir223-3p was encapsulated into the lipid transfection complex, RNAiMAX. […] After 48 hours, the cells were trypsinized, counted and plated in 6 well plates at a density of 4000 cells per well, in triplicates. After 14 days of incubation, colonies were stained with 0.1% crystal violet in methanol and counted using Image J software. […]
(§3) Cell Culture, miRNA transfection and Survival Assay. […] After 48 hours, the cells were trypsinized, counted and plated in 6 well plates at a density of 4000 cells per well, in triplicates. After 14 days of incubation, colonies were stained with 0.1% crystal violet in methanol and counted using Image J software. […]

[4] = tested on: other DNA repair components as well as PARP1; experiment: Western blot of DNA repair components after miR223-3p mimic; details: MDA MB 436, HCC1937 and H2452 cells, 48 hours after transfection, vs scr control
Protocol: (§4) Cell Culture, miRNA transfection and Survival Assay. The BRCA1-deficient MDA-MB-436 breast cancer cells were cultured in DMEM supplemented with 10% FBS and 1% penicillin and streptomycin. BRRCA1-deficient UWB1.289 ovarian cancer cells were cultured and maintained in 50% MEBM medium with growth factors and 50% RPMI medium supplemented with 3% FBS and 1% penicillin and streptomycin. BAP1-mutant H2452 mesothelioma cells were cultured in RPMI 1640 medium supplemented with 10% fetal bovine serum and 1% penicillin and streptomycin. 25 nm of mirVana miR223-3p mimic from Ambion life technologies (Cat #4464067) was used to deplete PARP1 protein in these cell lines. Mir223-3p was encapsulated into the lipid transfection complex, RNAiMAX. 25 nm of mir223-3p was incubated in 500 µL Opti-MEM plus 6 ul of RNAiMAX for 20 mins at room temperature, and then added to the cells for a final volume of 1 ml. After 48 hours, the cells were trypsinized, counted and plated in 6 well plates at a density of 4000 cells per well, in triplicates. After 14 days of incubation, colonies were stained with 0.1% crystal violet in methanol and counted using Image J software. PARP1 repression by mir223-3p was shown by western blot. PARP1 antibody was purchased from Cell Signaling (46D11). FIG. 44 illustrates the depletion of other DNA repair components in addition to PARP1.

[5] = tested on: MDA-MB-436 (breast cancer) cells, deficient in BRCA1; experiment: Colony formation survival assay, MDA-MB-436; details: MDA-MB-436, 25 nm miR-223-3p mimic, colonies counted after 14 days
Protocol: as §2, §3

[6] = tested on: MDA-MB-436 BRCA mutant cells; experiment: Active replication forks analysis (BrdU foci), MDA-MB-436; details: 72 hours after miRNA transfection, BrdU 30 minutes
Protocol: Active Replication Forks Analysis. Active Replication forks after miR223-3p mimic transfection were measured using immunofluorescent detection of BrdU foci after DNA denaturation. Briefly, 72 hours after transfection, cells were released into fresh media containing 10 uM BrdU (BD Biosciences, Franklin Lakes, N.J.) for 30 min. After washing, cells on coverslip were fixed and the DNA denatured using hydrochloric acid for BrdU immunostaining. The coverslips were processed for immunostaining using BrdU-specific antibody (Cell Signaling, Danvers, Mass.) and then incubated with a secondary antibody conjugated with Alexa Fluor dye from Invitrogen for 1 h. Cells were analyzed as above using the laser scanning confocal microscope. At least five hundred cells were counted for each condition from at least six distinct slides per condition for statistical analysis.

PARP1 = experiment: Western analysis of PARP1 after exposure to miR-223-3p mimic; details: for PARP1 protein expression (Western): breast and ovarian cell lines harboring BRCA1 mutant (MDA-MB-436, UWB1.289); for PARP1 repression/knockdown (Western): cell line not given, 25 nM mimic in FIG. 33
Protocol: Colony formation assays measures the ability of a single cell to not only survive, but also to proliferate. Thus, it is an indirect measurement of cancer stem cell activity, the ability of a single cell to give rise to a host of progeny. The BRCA1-deficient MDA-MB-436 breast cancer cells were cultured in DMEM supplemented with 10% FBS and 1% penicillin and streptomycin. BRRCA1-deficient UWB1.289 ovarian cancer cells were cultured and maintained in 50% MEBM medium with growth factors and 50% RPMI medium supplemented with 3% FBS and 1% penicillin and streptomycin. 25 nm of mirVana miR-223 3p mimic from Ambion life technologies (Cat #4464067) was used to deplete PARP1 protein in these cell lines. Mir223-3p was encapsulated into the lipid transfection complex, RNAiMAX. 25 nm of miR-223-3p was incubated in 500 μL Opti-MEM plus 6 μl of RNAiMAX for 20 mins at room temperature and then added to the cells for a final volume of 1 ml. After 48 hours, the cells were trypsinized, counted and plated in 6 well plates at a density of 4000 cells per well, in triplicates. After 14 days of incubation, colonies were stained with 0.1% crystal violet in methanol and counted using Image J software. PARP1 repression by miR-223-3p was shown by western blot. PARP1 antibody was purchased from Cell Signaling (46D11).
as §4

aNHEJ = experiment: Alternative non-homologous end joining (aNHEJ) assay in EJ2-GFP U2OS cells; details: prior exposure to miR-223-3p, I-SceI expression
Protocol: PARP1 is involved in the initial step in aNHEJ DNA double strand break repair. If PARP1 is repressed, then aNHEJ is decreased. The EJ2-GFP U2OS system was used to assess aNHEJ. This reporter system contains single, integrated copy of reporter with I-SceI target sites. These sites were cleaved upon transfection of an I-SceI expression vector. Cells were transfected with miR-223 3p mimic using RNAiMAX. 24 hours after transfection, the cells were transfected with I-SceI vector using polyethylenimine (PEI). After 72 hours, EJ2 cells were trypsinized, washed with PBS and GFP-positive cells were measured using FACSort (Becton-Dickinson, San Jose, Calif.). The GFP positive cells are proportional to the aNHEJ frequency.
Alternative Non-Homologous End Joining (aNHEJ) assay. PARP1 is the initial step in aNHEJ DNA double strand break repair. If PARP1 is repressed, then aNHEJ will be decreased. The EJ2-GFP U2OS system was used to assess aNHEJ. This reporter system contains single, integrated copy of reporter with I-SceI target sites. These sites were cleaved upon transfection of an I-SceI expression vector. Cells were transfected with miR223 3p mimic using RNAiMAX. […] After 72 hours, EJ2 cells were trypsinized, washed with PBS and GFP-positive cells were measured using FACSort (Becton-Dickinson, San Jose, Calif.). […]

`Nc1ccn([C@@H]2O[C@H](CO)[C@@H](O)[C@@H]2O)c(=O)n1` [Ara-C, cytarabine] was tested, and the “levels of endogenous miR-223-3p (qRT-PCR)” value [1] was “gradual decrease”.

For `O=C(c1cc(Cc2n[nH]c(=O)c3ccccc23)ccc1F)N1CCN(C(=O)C2CC2)CC1` [Olaparib, olaparib], the “cells killed (colony formation)” value [2] was 80-90%.

For “miR-223-3p: mirVana miR-223 3p mimic from Ambion life technologies (Cat #4464067); miR-223-3p is SEQ ID NO: 75; transfected with RNAiMAX (UGUCAGUUUGUCAAAUACCCCA; listed as RNA, chemistry not given here) [mirVana miR-223 3p mimic from Ambion life technologies (Cat #4464067); transfected with RNAiMAX]”, the “Luciferase expression (PARP1 3′ UTR linked to Firefly Luciferase)” value (PARP1 3′ UTR mRNA) was “decreased”, the “Luciferase expression (PARP1 3′ UTR linked to Firefly Luciferase)” value (PARP1 3′ UTR mRNA; listed as miR223-3p mimic) was “inhibition of PARP1” and the number of colonies [3] was “decreased number of colonies”. For the same compound, the “depletion of DNA repair components (Western)” value [4] was “depletes other DNA repair components as well as PARP1”, the number of colonies [5] was “decreased number of colonies” and the “active replication forks (BrdU)” value [6] was “decreases active replication forks”. For the same compound, the “PARP1 knockdown (Western)” value (PARP1; BAP1 mutant mesothelioma) was “knockdown of PARP1”, the “PARP1 knockdown (Western)” value (PARP1; EJ2-GFP cell reporter system) was “knockdown of PARP1” and the “PARP1 protein expression (Western)” value (PARP1) was “represses PARP1 protein expression”. The “PARP1 protein expression (Western)” value (PARP1; listed as mir223 mimic) was “knockdown of PARP1”, the “PARP1 repression/knockdown (Western)” value (PARP1) was “Knockdown of PARP1” and the “PARP1 repression/knockdown (Western)” value (PARP1; listed as miR223 mimic) was “repression of PARP1”. The “fraction of EJ2 cells with productive aNHEJ (GFP positive cells)” value (aNHEJ) was “decreased”.
